Read-outs that look alike come from different tables or passages of the source. Where no end group is shown, it is not given here.
Columns and labels:
S. aureus (ATCC 29213) = assay: MIC, standard microtiter dilution (CLSI); format: cell-based; conditions: for MIC, S. aureus (ATCC 29213): broth microdilution (CLSI), CAMHB, 37 °C, 24 h
In short: (§1)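 Broth microdilution per CLSI: overnight cultures diluted in cation-adjusted Mueller Hinton Broth to 10^6 CFU/mL, mixed with 2-fold serial peptide dilutions, incubated 37 °C for 24 h. MIC = lowest peptide concentration inhibiting growth. Three independent assays in triplicate.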

E. coli (ATCC 25922) = conditions: broth microdilution (CLSI), CAMHB, 37 °C, 24 h
In short: as §1

MRSA (ATCC BAA-1556) = conditions: broth microdilution (CLSI), CAMHB, 37 °C, 24 h
In short: as §1

[1] = system: P. aeruginosa (ATCC 27883); assay: MIC, standard microtiter dilution (CLSI); format: cell-based, Pseudomonas aeruginosa; conditions: broth microdilution (CLSI), CAMHB, 37 °C, 24 h
In short: as §1

[2] = system: K. pneumoniae (ATCCBAA-1705); assay: MIC, standard microtiter dilution (CLSI); format: cell-based, Klebsiella pneumoniae; conditions: broth microdilution (CLSI), CAMHB, 37 °C, 24 h
In short: as §1

[3] = system: human red blood cells (hRBCs); assay: Hemolytic assay; format: cell-based; conditions: 2 h, 37 °C
In short: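 Percent hemolysis uses PBS as 0% and 1% Triton X-100 as 100% references, from supernatant absorbance at 567 nm. Red cells (4% in PBS, equal volume) exposed 2 h at 37 °C without agitation to 2-fold serially diluted peptide.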

[4] = Relative hydrophobicity as RP-HPLC retention time; format: physicochemical; conditions: chromatographic, Phenomenex Luna C18 4 μm 150 × 4.6 mm, linear AB gradient 1% acetonitrile/min, 0.3 mL/min, A water 0.1% TFA, B acetonitrile 0.1% TFA, 25 °C
Experimental: The purity analysis of the peptides was conducted on a RP-HPLC system (Shimadzu; LC-20ADXR) by using a Phenomenex (Luna) analytical C18 column (4 μm, 150 × 4.6 mm). The mass of the purified peptides was determined in the positive-ion mode using Q-TOF LC/MS (Compass Hystar 4.1, Bruker, USA). The purity (>95%) and mass data of all the synthesized peptides are provided in the Supporting Information.
8. Comparative Hydrophobicity analysis
The purity of all synthesized peptides was determined using reverse phase analytical HPLC
(Shimadzu; LC-20ADXR). Below mentioned are the conditions used to conduct the purity
Column: Phenomenex (Luna), 4 um, C18, 150 × 4.6 mm
Mobile Phase: Buffer A-Water containing 0.1% TFA,
Buffer B-Acetonitrile containing 0.1% TFA
Figure S52. HPLC chromatogram of 6a.
(1 picture or pasted object on this page, not shown here)

[5] = CD spectroscopy, helicity; format: physicochemical; design: key to Δ[θ]222 induced by TFE / Δ[θ]222 induced by Liposomes: mean residue molar ellipticity, mdeg cm2/(dmol × res); conditions: for [θ]222 mean residue molar ellipticity, TFE / [θ]222 mean residue molar ellipticity, Liposomes / [θ]222 mean residue molar ellipticity, PBS: CD at 222 nm, 25 °C; for [θ]222 mean residue molar ellipticity, TFE: aqueous buffer containing 50% TFE; for [θ]222 mean residue molar ellipticity, Liposomes / Δ[θ]222 induced by Liposomes: bacterial membrane mimicking liposomes; for [θ]222 mean residue molar ellipticity, Liposomes: peptide:lipid molar ratio 1:1.05; for [θ]222 mean residue molar ellipticity, PBS: phosphate buffer saline pH 7.0; for Δ[θ]222 induced by TFE / Δ[θ]222 induced by Liposomes: difference to PBS; for Δ[θ]222 induced by TFE: 50% TFE; for % of helicity induced by TFE: increase in molar ellipticity at 222 nm in the presence of 50% TFE; for % of helicity induced by Liposomes: increase in molar ellipticity at 222 nm in the presence of liposomes;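 for % of helicity induced by Liposomes: share of the total helicity with liposomes gained over the same peptide in PBS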;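 for % of helicity induced by TFE: share of the total helicity in TFE gained over the same peptide in PBS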
Experimental: The CD spectra of peptides were recorded using a Jasco J-1500 CD spectrophotometer (Jasco, Easton, MD) at 25 °C with a 1 mm path length cell. Wavelengths from 190 to 260 nm were scanned with 1.0 nm step resolution, 100 nm/min speed, 0.4 s response time, and 1 nm bandwidth. CD spectra of the peptides were collected and averaged over three scans in 10 mM sodium phosphate buffer (pH 7.2), helix-inducing solvent 50% TFE (v/v), and bacterial mimic liposomes (75 μM lipid). Spectra were corrected by subtracting a baseline spectrum containing only buffer or 50% TFE or liposomes. The mean residue molar ellipticity was calculated using the formula [drawing 3] where Ab222 is the absorbance observed at 222 nm, MRW is the mean residue molecular weight, C is the concentration in mg/mL, and L is the path length.
Table S1. RP-HPLC retention times and CD spectroscopy analysis of the selected peptides Peptide tR (min)a [θ]222b Δ[θ]222 induced by % of helicity inducedc by PBS TFE Liposomes TFE Liposomes TFE Liposomes […]
atR (min) denotes the retention time at 25°C by RP-HPLC. bThe mean residue molar ellipticity [θ] 222 (mdeg cm2/(dmol × res)) at 222 nm was measured at 25 °C in phosphate buffer saline (PBS, pH 7.0), in aqueous buﬀer containing 50% TFE (TFE), or in presence of bacterial membrane mimicking liposomes (peptide:lipid […]
c% helix induced is the increase in the molar ellipticity at 222 nm (in percentage) of a peptide in the presence of TFE or liposomes.

[6] = 10^6 CFU/mL, highest MIC of three independent experiments in triplicate
[7] = hRBC suspension 4% in PBS, hemoglobin release at 567 nm, 1% Triton X-100 = 100%
[8] = value in parentheses (μM), hRBC 4% in PBS, 567 nm

Row | Substance | MIC, S. aureus (ATCC 29213) (S. aureus (ATCC 29213); [6]) [mg/L] | MIC, S. aureus (ATCC 29213) (S. aureus (ATCC 29213); value in parentheses (μM)) [µM] | MIC, E. coli (ATCC 25922) (E. coli (ATCC 25922); [6]) [mg/L] | MIC, E. coli (ATCC 25922) (E. coli (ATCC 25922); value in parentheses (μM)) [µM] | MIC, MRSA (ATCC BAA-1556) (MRSA (ATCC BAA-1556); [6]) [mg/L] | MIC, MRSA (ATCC BAA-1556) (MRSA (ATCC BAA-1556); value in parentheses (μM)) [µM] | MIC, P. aeruginosa (ATCC 27883) [1, 6] [mg/L] | MIC, P. aeruginosa (ATCC 27883) ([1]; value in parentheses (μM)) [µM] | MIC, K. pneumoniae (ATCCBAA-1705) [2, 6] [mg/L] | MIC, K. pneumoniae (ATCCBAA-1705) ([2]; value in parentheses (μM)) [µM] | HC50 (concentration at which 50% hemolysis was observed) [3, 7] [µg/mL] | HC50 (concentration at which 50% hemolysis was observed) [3, 8] [µM] | tR, RP-HPLC retention time (measure of overall hydrophobicity) [4] [min] | [θ]222 mean residue molar ellipticity, TFE [5] | [θ]222 mean residue molar ellipticity, Liposomes [5] | [θ]222 mean residue molar ellipticity, PBS [5] | Δ[θ]222 induced by TFE [5] | Δ[θ]222 induced by Liposomes [5] | % of helicity induced by TFE [5] [%] | % of helicity induced by Liposomes [5] [%] | further results
1 | KWAKKWAKWWKK-NH2 [6b] | 100 | 59.77 | > 100 | > 59.77 | 100 | 59.77 | > 100 | > 59.77 | > 100 | > 59.77 | > 500 | > 298.85 | 28.98 | -14689 mdeg cm2/(dmol × res) | -20391 mdeg cm2/(dmol × res) | -7476 mdeg cm2/(dmol × res) | -7212 | -12915 | 49.10 | 63.33 | –
2 | RWARRWARWWRR-NH2 [6a] | 50 | 27.16 | > 100 | > 54.31 | 50 | 27.16 | 100 | 54.31 | > 100 | > 54.31 | 230 | 124.92 | 30.42 | -13346 mdeg cm2/(dmol × res) | -13245 mdeg cm2/(dmol × res) | -6737 mdeg cm2/(dmol × res) | -6608 | -6508 | 49.51 | 49.13 | MIC against S. aureus (S. aureus (ATCC 29213)): 50 mg/L; increase in helicity in the presence of liposomes, as compared to PBS ([5]; CD): about 50%
3 | Ac-RWARRWARWWRR-NH2 [6c] | 50 | 26.55 | 100 | 53.10 | 50 | 26.55 | 100 | 53.10 | > 100 | > 53.10 | 110 | 58.41 | 34.61 | -18280 mdeg cm2/(dmol × res) | -20250 mdeg cm2/(dmol × res) | -10947 mdeg cm2/(dmol × res) | -7332 | -9303 | 40.11 | 45.93 | –
4 | Ac-KWLKKWLKWWKK-NH2 [8d] | 3.1 | 1.72 | 6.2 | 3.45 | 6.2 | 3.45 | 6.2 | 3.45 | 12.5 | 6.95 | 145 | 80.59 | 39.25 | -16759 mdeg cm2/(dmol × res) | -24786 mdeg cm2/(dmol × res) | -10222 mdeg cm2/(dmol × res) | -6537 | -14564 | 39.00 | 58.75 | –

Source: PMC9841524, “Structure-Based Rational Design of Small α-Helical Peptides with Broad-Spectrum Activity against Multidrug-Resistant Pathogens” (Journal of Medicinal Chemistry, 2022)
